Assay results reported in ChEMBL document CHEMBL1201862, “PubChem BioAssay data set” (2004).
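How tested: cells in 96-well plates exposed to compound for 48 hours at five concentrations. GI50 marks 50% less growth.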 Calls of active or inactive are those of the source. Cut-off read from the data, not from the text of the source: active = GI50 up to about 1.1 µM and inactive = higher. Residues, ends and D or L forms follow the SMILES beside them. *: point of attachment. Boc = CC(C)(C)OC(=O)*

Legend:
Assay in all cases: NCI tumour cell line growth inhibition, 48 h
NCI-H460 = test system: NCI-H460
OVCAR-8 = test system: OVCAR-8
SK-MEL-28 = test system: SK-MEL-28
MOLT-4 = test system: MOLT-4
UO-31 = test system: UO-31
SW-620 = test system: SW-620
A549 = test system: A549
M14 = test system: M14
UACC-257 = test system: UACC-257
KM12 = test system: KM12
RXF 393 = test system: RXF 393
OVCAR-4 = test system: OVCAR-4
SNB-19 = test system: SNB-19
SF-539 = test system: SF-539
SF-268 = test system: SF-268
SK-MEL-2 = test system: SK-MEL-2
NCI-H522 = test system: NCI-H522
HCT-116 = test system: HCT-116
HOP-92 = test system: HOP-92
SR = test system: SR

Measured: GI50

CC(C)C(=O)Nc1cc(C(F)(F)F)ccc1[N+](=O)[O-]
inactive: NCI-H460 72.6 µM | OVCAR-8 > 100 µM | SK-MEL-28 > 100 µM | MOLT-4 > 100 µM | UO-31 > 100 µM | SW-620 > 100 µM | A549 > 100 µM | M14 > 100 µM | UACC-257 > 100 µM | KM12 > 100 µM | RXF 393 > 100 µM | OVCAR-4 > 100 µM | SNB-19 > 100 µM | SF-539 > 100 µM | SF-268 > 100 µM | SK-MEL-2 > 100 µM | NCI-H522 > 100 µM | HCT-116 > 100 µM | HOP-92 > 100 µM

COc1cc(OC)nc(-n2c(N)c(C(=O)O)c3ccc([N+](=O)[O-])cc3c2=O)n1
inactive: NCI-H460 > 100 µM | OVCAR-8 > 100 µM | SK-MEL-28 97.7 µM | MOLT-4 > 100 µM | UO-31 71.1 µM | SW-620 88.1 µM | A549 > 100 µM | M14 > 100 µM | KM12 > 100 µM | RXF 393 > 100 µM | OVCAR-4 > 100 µM | SNB-19 > 100 µM | SR > 100 µM | SF-268 > 100 µM | SK-MEL-2 > 100 µM | NCI-H522 > 100 µM | HCT-116 > 100 µM

CCOC(=O)C(NC(=O)c1cccc(Cl)c1)(Nc1ccc(S(=O)(=O)Nc2cc(C)on2)cc1)C(F)(F)F (stereo unspecified)
inactive: NCI-H460 > 100 µM | OVCAR-8 > 100 µM | SK-MEL-28 > 100 µM | MOLT-4 > 100 µM | UO-31 > 100 µM | SW-620 > 100 µM | A549 > 100 µM | M14 > 100 µM | UACC-257 > 100 µM | KM12 > 100 µM | RXF 393 42.5 µM | OVCAR-4 > 100 µM | SNB-19 > 100 µM | SF-539 > 100 µM | SF-268 > 100 µM | SK-MEL-2 > 100 µM | NCI-H522 > 100 µM | HCT-116 > 100 µM | HOP-92 > 100 µM

COc1ccc(CC2(O)C3CC4CCC2C4C3)cc1 (stereo unspecified)
inactive: NCI-H460 68.5 µM | OVCAR-8 > 100 µM | SK-MEL-28 > 100 µM | MOLT-4 45 µM | UO-31 49.7 µM | SW-620 > 100 µM | A549 79.4 µM | M14 > 100 µM | UACC-257 38.5 µM | KM12 > 100 µM | OVCAR-4 > 100 µM | SNB-19 > 100 µM | SR 58.7 µM | SF-268 > 100 µM | SK-MEL-2 > 100 µM | NCI-H522 88.3 µM | HOP-92 58.5 µM

O=C1NC2CCCCCC2C12CCCCC2 (stereo unspecified)
inactive: NCI-H460 > 100 µM | SK-MEL-28 > 100 µM | MOLT-4 > 100 µM | UO-31 > 100 µM | SW-620 > 100 µM | A549 > 100 µM | M14 > 100 µM | UACC-257 > 100 µM | KM12 > 100 µM | RXF 393 > 100 µM | OVCAR-4 > 100 µM | SNB-19 > 100 µM | SR > 100 µM | SF-539 > 100 µM | SF-268 > 100 µM | HCT-116 > 100 µM

CC(NC(=O)C(NC(=O)OC(C)(C)C)C(C)C)C(=O)N1CCCC1C(=O)NCC(=O)NC(C(=O)NCC(=O)O)C(C)C (stereo unspecified) (Boc-VAPGVG-OH; configuration not given here)
inactive: NCI-H460 65.5 µM | OVCAR-8 > 100 µM | SK-MEL-28 > 100 µM | MOLT-4 > 100 µM | UO-31 > 100 µM | SW-620 > 100 µM | M14 > 100 µM | UACC-257 > 100 µM | OVCAR-4 > 100 µM | SNB-19 > 100 µM | SR > 100 µM | SF-539 > 100 µM | SF-268 > 100 µM | SK-MEL-2 > 100 µM | NCI-H522 > 100 µM | HCT-116 > 100 µM | HOP-92 29.2 µM

O=c1cnnc2sc(=S)[nH]n12
inactive: NCI-H460 26.7 µM | OVCAR-8 16.4 µM | SK-MEL-28 65.5 µM | MOLT-4 15 µM | UO-31 22.2 µM | SW-620 12.4 µM | A549 46.7 µM | M14 84.1 µM | UACC-257 15.9 µM | KM12 > 100 µM | OVCAR-4 16.7 µM | SNB-19 27.4 µM | SR 22.4 µM | SF-539 > 100 µM | SF-268 5.04 µM | SK-MEL-2 > 100 µM | NCI-H522 8.45 µM | HCT-116 > 100 µM

COC(=O)[C@]1(C)CCCn2c(=O)n(-c3ccccc3)c(=O)n21
inactive: OVCAR-8 > 100 µM | SK-MEL-28 > 100 µM | MOLT-4 > 100 µM | UO-31 > 100 µM | SW-620 > 100 µM | A549 > 100 µM | M14 > 100 µM | UACC-257 > 100 µM | KM12 > 100 µM | RXF 393 > 100 µM | OVCAR-4 > 100 µM | SNB-19 > 100 µM | SF-539 > 100 µM | SF-268 > 100 µM | SK-MEL-2 > 100 µM | NCI-H522 > 100 µM | HCT-116 > 100 µM | HOP-92 > 100 µM
